This note sets out measurements from patent US20210177803A1, “NEW PHARMACEUTICAL USE FOR THE TREATMENT OF HEART FAILURE” (Novartis AG, priority 2018, published 2021).

Series [1] relates to patients hospitalized for acute HFrEF. The experiment in a line: PIONEER-HF study: clinical outcomes. In kind it is in vivo, human. The settings on record: 8 weeks; LCZ696 n = 440, enalapril n = 441. On the procedure: The study rational and design is described in by Velazquez E J, et al. .in Am.
(§1) The starting dose and all subsequent doses were selected to optimize the highest tolerated dose based on a systolic blood pressure (SBP) algorithm.
(§2) Inclusion Criteria: • Patients ≥18 y of age with the capacity to provide written informed consent. • Currently hospitalized for a primary diagnosis of HF, including symptoms and signs of fluid overload. • Eligible patients will be randomized no earlier than 24 hours and up to ten days after presentation while still hospitalized as long as meet the following definition of stable status: • SBP≥100 mm Hg for the preceding 6 hours prior to randomization; no symptomatic hypotension • No increase (intensification) in i.v. diuretic dose within last 6 hours prior to randomization • No i.v. inotropic drugs for 24 hours prior to randomization • No i.v. vasodilators including nitrates within last 6 hours prior to randomization • Left ventricular EF 40% within the past 6 m (including current hospitalization) using echocardiography, multi gated acquisition scan (MUGA), CT scanning, MRI or ventricular angiography, provided no subsequent study documented an EF of >40% • Elevated NT-proBNP≥1600 pg/mL OR BNP≥400 pg/mL during current hospitalization.

Series [2] shares this test system. On the procedure: as §1, §2

Turning to `CCOC(=O)[C@H](CCc1ccccc1)N[C@@H](C)C(=O)N1CCC[C@H]1C(=O)O` [enalapril, reference compound], in series [1], the “Additional HF drug” value was 83 (18.8) number (%); the “Composite (death, rehospitalization for HF, LVAD implantation, or listing for cardiac transplant)” value is on record as 74 (16.8) number (%); the Death is 15 (3.4) number (%); the “Expanded composite (composite plus unplanned outpatient visits requiring IV diuretics, or increase >50% in diuretic dose)” value is 275 (62.4) number (%). Also, in series [1], the HF rehospitalization is 61 (13.8) number (%), the “Increase in diuretic dose >50%” value is 239 (54.2) number (%), the LVAD implantation is 1 (0.2) number (%) and the “Listing for cardiac transplant” value is recorded as 0 (0.0) number (%). In addition, the “Unplanned outpatient visits requiring intravenous diuretics” value in series [1] is given as 2 (0.5) number (%). In series [2] (8 weeks), this molecule returned a Hyperkalemia of 9.3%, a Symptomatic hypotension of 9.1% and a Worsening renal function of 14.7%. Further, the “Angioedema in patients who identified as black (in words)” value in series [2] (black patients) was “angioedema were observed”. Moreover, the “Angioedema events (number in words)” value in series [2] (blinded adjudication) is recorded as “six”. The Angioedema in series [2] (blinded adjudication, 8 weeks) stood at 1.4%. In addition, the “Patients in whom the maximum target dose had been achieved” value in series [2] (by the week 8 study visit) is recorded as 62%. For the same molecule, in series [2] (excluding discontinuation due to death), the “Study drug prematurely discontinued prior to 8 weeks” value is reported as 20.3%.
